Reference: patent publication US11771685B2, “Compounds for the treatment of neurological or mitochondrial diseases” (MUSC FOUNDATION FOR RESEARCH DEVELOPMENT, priority 2018, dated 2023)
Converted amounts (≈) assume the structure as drawn. Like-named read-outs stand apart in the source and are kept apart here.

Assays:
[1] = In vivo pharmacokinetics in CD-1 mice; conditions: male, CD-1, mouse, plasma, ip, 20 mg/kg, intraperitoneal 20 mg/kg, 5% DMSO: 95% neobee
Brain tissue binding = type: in vitro ADME; conditions: in vitro, read-out: Brain tissue binding (% bound)
[2] = Aqueous solubility at pH 7.4; type: physicochemical; conditions: pH 7.4, aqueous buffer; 50 mM phosphate buffer
[3] = Liver microsome stability; type: in vitro ADME; conditions: in vitro
[4] = Mini-Ames test (mutagenicity); type: cell-based; conditions: in vitro
[5] = In vivo pharmacokinetics in CD-1 mice; design: species or system mouse; conditions: for Vd: read-out: Vss; for Cmax: read-out: Cmax
Experimental: PK studies on 3 and 25 were carried out in CD-1 mice. Three males were dosed via oral gavage needle for oral administration at 20 mg/kg (10 mL/kg) or via intravenous administration at 5 mg/kg (10 mL/kg). Blood samples were taken at time intervals between 5 min and 24 hr from each animal.
The PK studies of 1 were performed by WuXi AppTec and PK studies of 3 and 25 were performed by Touchstone Biosciences (Peng et al., 2006b; Peng et al., 2001; Peng et al., 2006a; Peng et al., 2009). Male CD-1 mice were fed a standard laboratory rodent diet and housed in individual cages on a 12 hr light and 12 hr dark cycle with room temperature maintained at 22±3° C. and relative humidity at 50±20%. Animals were typically fasted overnight before dosing, with food returned after the 6 hr blood samples were obtained. Water was provided ad libitum throughout the study. The dosing solution of each test compound was prepared in a desired oral or intravenous formulation. Three to four animals were dosed via gavage needle for oral administration at 10-20 mg/kg (10-20 mL/kg) or via tail vein injection for IV administration at 2-5 mg/kg (2-5 mL/kg). […] Fluid replacement (1.5 mL of 0.9% NaCl injection, USP) was administered subcutaneously once after the 2 hr blood sampling. Blood samples were collected in BD Microtainer tubes coated with anticoagulant, placed on ice, and within 30 min, centrifuged at 15,000 g for 5 min to obtain plasma samples. All plasma samples were stored at −70° C. until analysis.
Plasma samples were prepared as follows. Three volumes of acetonitrile containing internal standard was added to one volume of plasma to precipitate proteins. Samples were centrifuged (3000 g for 10 min) and supernatant removed for analysis by LC-MS/MS. Calibration standards and quality controls were made by preparation of a 1 mg/mL stock solution and subsequently a series of working solutions in methanol:water (1:1, v/v) which were spiked into blank plasma to yield a series of calibration standard samples in the range of 1.0 ng/mL to 10 μg/mL and quality control samples at three concentration levels (low, middle and high). All incurred PK/PD plasma samples were treated identically to the calibration standards and quality control samples. LC-MS-MS analysis was performed utilizing multiple reaction monitoring for detection of characteristic ions for each drug candidate, additional related analytes and internal standard.
Plasma concentrations were measured as described above to determine a concentration vs. time profile. The area under the plasma concentration vs time curve (AUC) was calculated using the linear trapezoidal method. Fitting of the data to obtain pharmacokinetic parameters was carried out using non-compartmental analysis. Key PK parameters reported following intravenous administration are as follows: terminal half-life t1/2, initial plasma concentration C0, area under the plasma concentration vs. time curve AUC, volume of distribution at steady-state Vss, total plasma clearance CLp, and mean residence time MRT. Key PK parameters reported following extravascular administration are as follows: terminal half-life t1/2, maximum plasma concentration Cmax, time to reach maximum plasma concentration tmax, area under the plasma concentration vs. time curve AUC, mean residence time MRT, and bioavailability F. All parameters are expressed for individual animals as well as mean, standard deviation, and coefficient of variation.

[6] = Rotarod neurotoxicity test in mice; type: in vivo, mouse; conditions: 5% DMSO: 95% Neobee
corneal kindled mouse = assay: Mouse corneal kindled model; type: in vivo; conditions: 300 mg/kg, 5% DMSO: 95% Neobee
Experimental: Synthesis for both compounds has been successfully scaled up. The pharmacokinetic (PK) parameters of these two Vitamin K analogs were determined via intravenous, intraperitoneal and oral administration in mice, and preliminary in vitro ADMET parameters were assessed (Table 3). These compounds are Ames-negative, have hepatic stability greater than 1 hour, can be formulated in oral solution and IV injection solution, can be synthesized in greater than 1 mg quantities, and have established brain PK. However, brain tissue binding was high for both compounds (97-98%). Both 3 (NT-181) and 17 (NT-102) have been tested for efficacy in the 6 Hz mouse seizure model at 22 mA and 32 mA, the corneal kindled mouse model, and the rat in vitro spontaneous electrographic bursting model of pharmacoresistance (Table 4). […] Preliminary studies with this new formulation reveal excellent solubility with full protection in the 6 Hz mouse seizure model at 22 mA, and quantification of both compounds (using this new formulation) in this model at 22 mA, 32 mA and 44 mA, is being performed as well as retesting in the corneal kindled model. […] Rat PK assessments will be performed, and seizure protection assessed in rat models in the ADD workflow such as the 6 Hz model and lamotrigine-resistant amygdala kindled mode.

[7] = male, CD-1, mouse, plasma, ip, 20 mg/kg, intraperitoneal 20 mg/kg, 5% DMSO: 95% neobee
[8] = male, CD-1, mouse, plasma, iv, 5 mg/kg, intravenous 5 mg/kg, 20% DMA: 40% PEG300: 40% H2O
[9] = male, CD-1, mouse, plasma, iv, 5 mg/kg, 3 and 25 at 5 mg/kg
[10] = male, CD-1, mouse, plasma, po, 20 mg/kg, oral 20 mg/kg, 5% DMSO: 95% Neobee
[11] = male, CD-1, mouse, plasma, po, 20 mg/kg, oral 20 mg/kg, 20% DMA-40% PEG300-40% H2O
[12] = oral 20 mg/kg, 5% DMSO: 95% Neobee
[13] = oral 20 mg/kg, 20% DMA-40% PEG300-40% H2O

**Q.** Which results are given for `CCC#CCNC1=CC(=O)c2ccccc2C1=O` [Compound 3, 2-(Pent-2-yn-1-ylamino)naphthalene-1,4-dione]?
**A.** AUC(0-inf) [1]: 478 ng·h/mL; Cmax [1]: 147 ng/mL; MRT inf [1]: 4.2 h; Tmax [1]: 1 h; fraction unbound (Brain tissue binding): 0.02 to 0.03; solubility [2]: 4.79 µg/mL (≈ 20 µM); Liver microsome stability (t1/2) ([3]; listed as NT-181): >1 h; half-life ([3]; liver microsomes, read-out: Liver microsome stability (t1/2)): > 1 h; Mini-Ames test (mutagenicity) [4]: Ames-negative; Mini-Ames test (mutagenicity) ([4]; listed as NT-181): Negative; tlast ([5]; intraperitoneal 20 mg/kg, 5% DMSO: 95% neobee): 24 h; Clast ([5]; intravenous 5 mg/kg, 20% DMA: 40% PEG300: 40% H2O): 1.37 ng/mL; AUCinf/D ([5]; intravenous, 5 mg/kg): 89.6 h·(ng/mL)/(mg/kg); tlast ([5]; intravenous, 5 mg/kg): 24 h; t1/2 ([5]; intravenous, 3 and 25 at 5 mg/kg, 5 mg/kg): ~15 h; Kp ([5]; male, CD-1, mouse, brain/plasma, listed under intravenous 5 mg/kg, read-out: Brain Plasma Ratio): 0.373; AUC(0-t) [5, 7]: 463 ng·h/mL; half-life [5, 7]: 7.25 h; AUC(0-inf) [5, 8]: 448 ng·h/mL; AUC(0-t) [5, 8]: 421 ng·h/mL; MRT inf [5, 8]: 4.28 h; half-life [5, 8]: 14.7 h; clearance ([5]; male, CD-1, mouse, plasma, iv, 5 mg/kg, intravenous 5 mg/kg, 20% DMA: 40% PEG300: 40% H2O, read-out: CLp): 188 mL/min/kg; Vd [5, 8]: 48.6 L/kg; clearance ([5]; male, CD-1, mouse, plasma, iv, 5 mg/kg, intravenous, 3 and 25 at 5 mg/kg, read-out: CL): 188 mL/min/kg; Vd ([5]; male, CD-1, mouse, plasma, iv, 5 mg/kg, intravenous, 3 and 25 at 5 mg/kg): 48.6 L/kg; AUC(0-inf) [5, 9]: 448 ng·h/mL; AUC(0-t) [5, 9]: 421 ng·h/mL; MRT inf [5, 9]: 4.28 h; half-life [5, 9]: 14.7 h; AUC(0-inf) [5, 10]: 688 ng·h/mL; AUC(0-t) [5, 10]: 682 ng·h/mL; MRT inf [5, 10]: 5.71 h; Tmax [5, 10]: 4 h; half-life [5, 10]: 3.34 h; Cmax [5, 10]: 90.2 ng/mL; AUC(0-inf) [5, 11]: 992 ng·h/mL; AUC(0-t) [5, 11]: 738 ng·h/mL; MRT inf [5, 11]: 5.82 h; Tmax [5, 11]: 0.139 h; half-life [5, 11]: 5.27 h; Cmax [5, 11]: 394 ng/mL; concentration at 24 hr ([5]; male, CD-1, mouse, plasma, intraperitoneal 20 mg/kg, 5% DMSO: 95% neobee, read-out: Clast): 1.47 ng/mL; concentration at 24 hr ([5]; male, CD-1, mouse, plasma, intravenous, 5 mg/kg, read-out: Clast): 1.37 ng/mL; C0 ([5]; male, CD-1, mouse, plasma, intravenous, 3 and 25 at 5 mg/kg): 1520 ng/mL; concentration at 24 hr ([5]; male, CD-1, mouse, plasma, oral 20 mg/kg, 5% DMSO: 95% Neobee, read-out: Clast): 1.21 ng/mL; concentration at 8 hr ([5]; male, CD-1, mouse, plasma, oral 20 mg/kg, 20% DMA-40% PEG300-40% H2O, 8 hr post-dose, read-out: Clast): 33.1 ng/mL; F [5, 12]: 38.4%; tlast [5, 12]: 24 h; AUCinf/D [5, 13]: 49.6 h·(ng/mL)/(mg/kg); Cmax/D [5, 13]: 19.8 (ng/mL)/(mg/kg); F [5, 13]: 55.3%; tlast [5, 13]: 8 h; Neurotoxicity (Rotorod assay), animals showing toxicity [6]: 1/71 showed toxicity; Number of Animals Protected (corneal kindled mouse): 0/8 at 300 mg/kg
